Test results: patent US20250296937A1, “CYCLIC BISBENZYL TETRAHYDROISOQUINOLINE COMPOUND, AND PREPARATION METHOD THEREFOR AND USE THEREOF” (Shanghai Institute of Materia Medica, Chinesse Academy of …, priority 2021, published 2025)
pEC50: −log10 of the molar value. “Also recorded” adds a separate entry of the source.

Tests used:
[1] = tested on: delta mutant strain of SARS-CoV-2; assay type: cell-based; conditions: for pEC50: read-out: Inhibition against viral replication of delta mutant strain EC50
[2] = tested on: South African mutant strain of SARS-CoV-2; assay type: cell-based; conditions: for pEC50: read-out: Inhibition against viral replication of South African mutant strain EC50

| SMILES | inhibition against the delta strain [1] | pEC50 [1] | inhibition against the South African strain [2] | pEC50 [2] |
| --- | --- | --- | --- | --- |
| CCCCNC(=O)Oc1ccc2cc1Oc1ccc(cc1)C[C@H]1c3c(cc(OC)c(OC)c3Oc3cc4c(cc3OC)CCN(C)[C@@H]4C2)CCN1C [Compound 2] | strong inhibition; also recorded: significantly inhibited | 6.52 |  |  |
| COc1cc2c3cc1Oc1c(OC)c(OC)cc4c1[C@H](Cc1ccc(cc1)Oc1cc(ccc1C(N)=O)C[C@H]3N(C)CC2)N(C)CC4 [Compound 4] | strong inhibition; also recorded: significantly inhibited | 5.82 |  |  |
| CNC(=O)c1ccc2cc1Oc1ccc(cc1)C[C@H]1c3c(cc(OC)c(OC)c3Oc3cc4c(cc3OC)CCN(C)[C@@H]4C2)CCN1C [Compound 5] |  |  | strong inhibition; also recorded: significantly inhibited | 5.57 |
| COc1cc2c3cc1Oc1c(OC)c(OC)cc4c1[C@H](Cc1ccc(cc1)Oc1cc(ccc1C(=O)NC1CC1)C[C@H]3N(C)CC2)N(C)CC4 [Compound 6] |  |  | strong inhibition; also recorded: significantly inhibited | 5.66 |
